# Experiments:
# Assay in all cases: drug sensitivity score (DSS) from 5-dose viability curve (DSS (area-based score, 0 = no response)); higher = more sensitive (stronger viability inhibition); extreme values may be limits of the assay
# [1] = test system: MDCK p60AmotL2-inducible + doxycycline (p60AmotL2 expressing); conditions: doxycycline: 10 ng/mL; 72 h
# In short: (§1)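 Two MDCK lines, parental and doxycycline-inducible, received doxycycline at 10 ng/mL in the medium before being plated at 2000 cells/well onto a pre-spotted 384-well oncology library of 528 drugs at five doses (1-10,000 nM). Incubation lasted 72 h at 37 °C. Viability was read by CellTiter-Glo luminescence, scaled per plate between vehicle and positive controls, and converted to drug sensitivity scores through Breeze curve fitting.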
# [2] = test system: MDCK wild-type + doxycycline; conditions: doxycycline: 10 ng/mL; 72 h
# In short: as §1
# [3] = test system: MDCK wild-type - doxycycline; conditions: doxycycline: none; 72 h
# In short: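 Drug sensitivity scores came from Breeze pipeline dose-response fits of CellTiter-Glo luminescence, scaled per plate between vehicle and positive controls. The assay used parental MDCK cells without doxycycline at 2000 cells/well, exposed for 72 h to 528 oncology drugs at five doses (1-10,000 nM).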
SMILES,drug sensitivity score [1],drug sensitivity score [2],drug sensitivity score [3]
CC1=C(/C=C/C(C)=C/C=C/C(C)=C/C(=O)O)C(C)(C)CCC1 [Tretinoin],0,0,0.7
CO[C@@H]1[C@H](N(C)C(=O)c2ccccc2)C[C@H]2O[C@]1(C)n1c3ccccc3c3c4c(c5c6ccccc6n2c5c31)C(=O)NC4 [Midostaurin],13.9,11.5,13.2
Cc1sc2c(c1C)C(c1ccc(Cl)cc1)=N[C@@H](CC(=O)Nc1ccc(O)cc1)c1nnc(C)n1-2 [Birabresib],16.6,10.7,5.8
CC(C)n1nc(-c2ccc3oc(N)nc3c2)c2c(N)ncnc21 [Sapanisertib],13.4,9.8,8.1
Nc1ncn([C@@H]2O[C@H](CO)[C@@H](O)[C@H]2O)c(=O)n1 [Azacitidine],0.7,0.6,0.3
C#Cc1cccc(Nc2ncnc3cc(OCCOC)c(OCCOC)cc23)c1 [Erlotinib],15.4,4.5,3.4
COc1cccc2c1C(=O)c1c(O)c3c(c(O)c1C2=O)C[C@@](O)(C(=O)CO)C[C@@H]3O[C@H]1C[C@H](N)[C@H](O)[C@H](C)O1 [Doxorubicin],9.8,8.3,3.7
CC(C)C[C@H](NC(=O)CNC(=O)c1cc(Cl)ccc1Cl)B(O)O [Ixazomib],9.7,9.4,9.6
CC[C@@H](C(=O)[C@@H](C)[C@@H](O)[C@H](C)[C@@H]1O[C@@H]([C@@H](CC)C(=O)O)CC[C@@H]1C)[C@H]1O[C@]2(C=C[C@@H](O)[C@]3(CC[C@@](C)([C@H]4CC[C@](O)(CC)[C@H](C)O4)O3)O2)[C@H](C)C[C@@H]1C [Salinomycin],18.7,0.9,0.4
O=C(O)CNC(=O)c1c(O)c2ccccc2n(Cc2ccccc2)c1=O [IOX-2],0,0,0
NS(=O)(=O)OC[C@@H]1C[C@@H](n2ccc3c(N[C@H]4CCc5ccccc54)ncnc32)C[C@@H]1O [Pevonedistat],11.7,9.7,9
C[C@@H](C(=O)O)c1ccc(-c2ccccc2)c(F)c1 [Tarenflurbil],0,0,0
CN1CCN(CCOc2cc(OC3CCOCC3)c3c(Nc4c(Cl)ccc5c4OCO5)ncnc3c2)CC1 [Saracatinib],19.5,12.6,12.6
O=C(Nc1ccc(OC(F)(F)Cl)cc1)c1cnc(N2CC[C@@H](O)C2)c(-c2cc[nH]n2)c1 [Asciminib],0,0,0
O=C(O)c1ccc(-c2c[nH]c3ncc(-c4ccccc4)cc23)cc1C1CCCC1,0.8,1,0
Cc1nc(Nc2n[nH]c3c2CN(C(=O)N[C@H](CN(C)C)c2ccccc2)C3(C)C)c2sccc2n1,22.1,18,12.4
Cn1cc(C2=Nc3cc(NC(=O)C(N)C4CCCCC4)cc4c3C2=CNNC4=O)cn1 (configuration not stated),1.1,0,0
CCS(=O)(=O)c1cccc(-c2cc(C(=O)NC3CCN(C)CC3)c(C)c3[nH]c4ncc(C)cc4c23)c1 [TAK-901],1.8,0.7,0
Nc1cccc2c1CN(C1CCC(=O)NC1=O)C2=O (configuration not stated) [Lenalidomide],0,0,0
N#Cc1ccc(C(c2ccc(C#N)cc2)n2cncn2)cc1 [Letrozole],0,0,0
CCCCC(=O)OCC(=O)[C@]1(O)Cc2c(O)c3c(c(O)c2[C@@H](O[C@H]2C[C@H](NC(=O)C(F)(F)F)[C@H](O)[C@H](C)O2)C1)C(=O)c1c(OC)cccc1C3=O [Valrubicin],12.9,8.8,5.7
C/C(=C\c1csc(C)n1)[C@@H]1C[C@@H]2O[C@]2(C)CCC[C@H](C)[C@H](O)[C@@H](C)C(=O)C(C)(C)[C@@H](O)CC(=O)N1 [Ixabepilone],5,5,5.4

SMILES,drug sensitivity score [1],drug sensitivity score [2],drug sensitivity score [3]
Cn1cc(C2=C(c3cn(C4CCN(Cc5ccccn5)CC4)c4ccccc34)C(=O)NC2=O)c2ccccc21 [Enzastaurin],0,0,0
CC[C@]1(O)C[C@@H]2CN(CCc3c([nH]c4ccccc34)[C@@](C(=O)OC)(c3cc4c(cc3OC)N(C)[C@H]3[C@@](O)(C(=O)OC)[C@H](OC(C)=O)[C@]5(CC)C=CCN6CC[C@]43[C@@H]65)C2)C1 [Vinblastine],25.2,24,25.6
O=C(/C=C/c1cccc(S(=O)(=O)Nc2ccccc2)c1)NO [Belinostat],19,15.8,14
C[C@@]1(C(=O)Nc2ccc(F)nc2)CCCN1c1nc(Nc2cc(C3CC3)n[nH]2)c2cccn2n1,12.6,8.5,0
COc1cc(OC)cc(N(CCNC(C)C)c2ccc3ncc(-c4cnn(C)c4)nc3c2)c1 [Erdafitinib],0,0,0
COc1cc2c(cc1-c1c(C)noc1C)ncc1[nH]c(=O)n([C@H](C)c3ccccn3)c12 [I-BET151],10.9,4.6,0.6
CN(C)C(=O)c1ccc(S(=O)(=O)c2ccc(NC(=O)[C@@](C)(O)C(F)(F)F)c(Cl)c2)cc1 [AZD7545],0,0,0
CC(C)(C)NC(=O)[C@H]1CC[C@H]2[C@@H]3CC[C@H]4NC(=O)C=C[C@]4(C)[C@H]3CC[C@]12C [Finasteride],0,0,0
O=C(O)c1ccc(O)c2ncccc12 [IOX-1],1.7,1.6,1.4
COc1cc2c(Oc3ccc4[nH]c(C)cc4c3F)ncnc2cc1OCCCN1CCCC1 [Cediranib],0.3,0,0
CC(C)c1cc(C(=O)N2Cc3ccc(CN4CCN(C)CC4)cc3C2)c(O)cc1O [Onalespib],18.8,18.2,16.2
COc1c(OCCCN2CCOCC2)ccc2c1N=C(NC(=O)c1cnc(N)nc1)N1CCN=C21 [Copanlisib],10.9,6.2,5.8
OC[C@H]1O[C@@H](n2cnc3c2N=CNC[C@H]3O)C[C@@H]1O [Pentostatin],0,0,0
CC#CC(=O)N1CC[C@@H](n2c(=O)n(-c3ccc(Oc4ccccc4)cc3)c3c(N)ncnc32)C1 [Tirabrutinib],4,0.8,0
CC(C)N(CCCNC(=O)Nc1ccc(C(C)(C)C)cc1)C[C@H]1O[C@@H](n2cc(Br)c3c(N)ncnc32)[C@H](O)[C@@H]1O [SGC0946],0,0,0
CC(C)NC[C@@H](C(=O)N1CCN(c2ncnc3c2[C@H](C)C[C@H]3O)CC1)c1ccc(Cl)cc1 [Ipatasertib],2.2,0.1,0
COc1cc([C@@H]2c3cc4c(cc3[C@@H](O[C@@H]3O[C@@H]5CO[C@@H](c6cccs6)O[C@H]5[C@H](O)[C@H]3O)[C@H]3COC(=O)[C@H]23)OCO4)cc(OC)c1O [Teniposide],2.7,1.5,0.9
Cn1cc(C[C@@H](N)C(=O)O)c2ccccc21 [1-methyl-D-tryptophan],0,0,0
Nc1nc2[nH]cnc2c(=S)[nH]1 [Thioguanine],1.5,3.8,1.1
CS(=O)(=O)N1CCN(Cc2cc3nc(-c4cccc5[nH]ncc45)nc(N4CCOCC4)c3s2)CC1 [Pictilisib],14.4,8.4,6.9
Cc1nc(C(=O)NCC(=O)O)c(O)c2ccc(Oc3ccccc3)cc12 [Roxadustat],0,0,0
COC(=O)c1ccc2c(c1)NC(=O)/C2=C(\Nc1ccc(N(C)C(=O)CN2CCN(C)CC2)cc1)c1ccccc1 [Nintedanib],8.3,1.3,0.3

# — the supplement of paper PMC11003180
